Source: patent publication US6110944A, “LTA4, hydrolase inhibitors” (G. D. Searle & Co., priority 1997, dated 2000)
Counter-ions that a name gives are not always drawn.

Assays:
[1] = target: T1, recombinant human LTA hydrolase (rhLTAH) (Homo sapiens, UniProt P09960); assay: Recombinant Human LTA Hydrolase Assay for LTA Hydrolase Inhibitor Activity; format: biochemical; settings: 250 ng rhLTA4H, 10 min preincubation, room temperature, pH 7.4, 10 min reaction, immunoassay; read-out: Recombinant Human LTA4 Hydrolase Assay IC50 LTA4
T1 construct: made in house; host or cells: Spodoptera frugiperda Sf-9 cells (baculovirus AcNPV)
T1 sequence (P09960 1-611): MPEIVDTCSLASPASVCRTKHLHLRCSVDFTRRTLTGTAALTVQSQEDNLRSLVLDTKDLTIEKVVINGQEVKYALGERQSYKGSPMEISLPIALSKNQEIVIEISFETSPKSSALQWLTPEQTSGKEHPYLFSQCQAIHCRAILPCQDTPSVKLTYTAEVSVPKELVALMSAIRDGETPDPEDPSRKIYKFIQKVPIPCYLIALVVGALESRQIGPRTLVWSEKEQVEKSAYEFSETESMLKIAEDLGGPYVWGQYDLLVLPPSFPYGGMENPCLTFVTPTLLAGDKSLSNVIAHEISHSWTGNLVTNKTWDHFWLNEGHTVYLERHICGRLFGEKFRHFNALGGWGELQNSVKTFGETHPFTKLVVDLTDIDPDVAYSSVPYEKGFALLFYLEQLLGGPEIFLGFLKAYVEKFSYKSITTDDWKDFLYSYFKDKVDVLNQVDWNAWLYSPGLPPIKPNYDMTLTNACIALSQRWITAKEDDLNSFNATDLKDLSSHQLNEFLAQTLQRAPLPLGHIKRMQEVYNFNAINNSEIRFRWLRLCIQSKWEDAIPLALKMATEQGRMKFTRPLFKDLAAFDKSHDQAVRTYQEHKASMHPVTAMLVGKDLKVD
Method: Recombinant Human LTA Hydrolase Assay for LTA Hydrolase Inhibitor Activity
Compounds of the present invention were tested for LTA hydrolase inhibitor activity against recombinant human LTA hydrolase (rhLTAH). Recombinant human LTA hydrolase-encoding vectors were prepared and used to express rhLTAH essentially as described by J. Gierse, et al., Protein Expression and Purification, 4, 358-366 (1993). Briefly, LTA hydrolase encoding DNA was amplified by polymerase chain reaction using a pair of oligonucleotide primers based on the nucleotide sequence from the 5'-end, and the complement of the 3'-end, of the coding region of the LTA hydrolase gene, the nucleotide sequence of which gene is known. (See, C. Funk, et al., Proc. Natl. Acad. Sci. U.S.A. 84, 6677-6681 (1987)). A λgt11 human placental cDNA library (Clonetech, Palo Alto, Calif.) provided the nucleic acid template. […] The amplified 1.9 kb DNA was isolated and cloned into the genomic baculovirus, Autographa californica nuclear polyderosis virus (AcNPC) DNA, and the baculovirus expression vector was transfected into Spodoptera frugiperda Sf-9 cells employing the calcium phosphate co-precipitation method (see, M. Summers, et al., Tex. Agric. Exp. Stn. Bull. 1555, 1-57 (1987). Recombinant LTA4 hydrolase enzyme was purified from the transfected Sf-9 cells essentially as described by J. Gierse, et al., supra.
One or more predetermined amounts of a compound of the invention were incubated in assay buffer (0.1 M potassium phosphate, 5 mg/ml fatty acid free BSA, 10% DMSO, pH 7.4) for 10 minutes at room temperature with 250 ng of recombinant hLTA4 H to allow binding, if any, between the enzyme and inhibitor. The stock enzyme solution was 1 mg/m. LTA4 hydrolase, 50 mM Tris, pH 8.0, 150 mM NaCl, 2.5 mM beta-mercaptoethanol, 50% glycerol. The specific activity of the enzyme was about 650 nMoles/min/mg. LTA4 (i.e., substrate) was prepared from the methyl ester of LTA, (Biomol, Inc., Plymouth Meeting, Pa.) by treating the methyl ester with 30 molar equivalents of LiOH at room temperature for 18 hours. The LTA4 substrate in its free acid form was kept frozen at -80° C. until needed. LTA, (free acid) was thawed and diluted in assay buffer (minus DMSO) to a concentration of 350 ng/ml and 25 μl (8 ng) of LTA4 substrate was added to the reaction mixture (total volume of reaction mixture=200 μl at time zero. Each reaction was carried out at room temperature for 10 minutes. The reaction was stopped by diluting 25 μl of the reaction mixture with 500 μl of the assay buffer without DMSO. […] was quantified in the diluted sample by a commercially available enzyme-linked immunoassay [Caymen Chemical Col. Ann Arbor, Mich.] using the method recommended in the manufacturer's instructions and compared to the amount of […] produced in a negative control (i.e., essentially identical conditions except without addition of an inhibitor compound). The IC50 was routinely calculated from the data produced.

[2] = system: LTB4 production in calcium ionophore-stimulated human blood; assay: LTB4 Production by Calcium Ionophore Stimulated Human Blood (HWB); format: cell-based; settings: human blood diluted 1:4, 15 min preincubation at 37° C., ionophore 20 mcg/ml, 10 min; read-out: Inhibition of Calcium Ionophore-induced LTB4 Production in Human Blood IC50 HWB
Method: LTB4 and Thromboxane Production by Calcium Ionophore Stimulated Human Blood for LTB4 Hydrolase Inhibitor Activity
Human blood, collected in heparin-containing Vacutainer tubes, was diluted 1:4 with RPMI-1640 media and 200 μl of the diluted blood was added into each of a 96-well microtiter plate. One or more concentrations of the leukotriene A4 hydrolase inhibitor compounds being tested were prepared (diluted in DMSO) and 2 μl added and gently mixed with the diluted whole blood. After incubating for 15 minutes at 37° C. in a humidified incubator, calcium ionophore […] (Sigma Chemical Co., St. Louis, Mo.) was added to a final concentration of 20 mcg/ml and the incubation continued under the same conditions for an additional 10 minutes to allow LTB4 formation. The reaction was terminated by centrifugation (833 g, 10 minutes at 4° C.) and supernatant were analyzed for LTB4 and thromboxane by commercially available enzyme-linked immunoassays (Caymen Chemical Co., Ann Arbor, Mich.) according to the manufacturer's instructions. The IC50 of each test compound was determined from the amount of inhibition of LTB4 production as compared to an essentially identical assay in which no inhibitor compound was present.

[3] = system: LTB4 production in calcium ionophore-stimulated mouse blood; assay: Murine Ex Vivo LTB4 Inhibition, calcium ionophore stimulated mouse blood after oral gavage; format: in vivo; settings: blood collected 1 hour after administration, ionophore A23187 20 mcg/ml, read-out: Murine Ex Vivo LTB4 Inhibition % I LTB4 at 1 hour after administration of 10 mg/kg
Method: Ex Vivo LTB4 and Thromboxane Production by Calcium Ionophore Stimulated Mouse Blood for LTB4 Hydrolase Inhibitor Activity
Leukotriene A4 hydrolase inhibitor compounds of the present invention were diluted to a predetermined concentration in phosphate buffered saline containing 2%; DMSO and 1% Tween 80. The compounds were administered by oral gavage to adult male outbred mice weighing approximately 20-30 gm at a dose of 10 mg/kg body weight. (Compounds given at a dose of 50 mg/kg body weight are designated in following Table by the symbol, *) Sixty (60) minutes after administration of an LTA4 inhibitor compound of the invention, blood was collected (into heparin-containing tubes) from the retroorbital sinus. […] The mixture was incubated for 10 minutes at 37° C. in a humidified incubator. The reaction was terminated by centrifugation (833 g. 10 minutes at 4° C.). Supernatant were analyzed for LTB4 and thromboxane by commercially available enzyme-linked immunoassays [Caymen Chemical Co., Ann Arbor, Mich.] in accordance with the manufacturer's instructions. The percent inhibition was determined by comparison to animals treated identically except that the solution administered by oral gavage was devoid of inhibitor compound.

[4] = system: LTA4 hydrolase; settings: background statement, no value; cited from earlier work
[5] = system: granulocyte; settings: R. Lewis, et al., 1990; cited from earlier work

SMILES | IC50 [1] | IC50 [2] | inhibition at 10 mg/kg [3] | LTA4 hydrolase inhibitory activity [4] | granulocyte agonist activity inducing chemotaxis, aggregation, degranulation, adherence and priming [5]
N=C(N)COc1ccc(Cc2ccccc2)cc1 [Example 10, 1-imino-2-[4-(phenylmethyl)phenoxy]ethanamine] | 89 nM | 480 nM | 0% | – | –
COC(=O)CCN1CCN=C1COc1ccc(Cc2ccccc2)cc1 [Example 8] | 1170 nM | 550 nM | 68% | – | –
CC(C)C[C@H](NC(=O)[C@@H](O)[C@H](N)Cc1ccccc1)C(=O)O [bestatin] | – | – | – | exhibit LTA4 hydrolase inhibitory activity | –
C[C@H](CS)C(=O)N1CCC[C@H]1C(=O)O [captopril] | – | – | – | exhibit LTA4 hydrolase inhibitory activity | –
CCCCC/C=C\C[C@@H](O)/C=C/C=C/C=C\[C@@H](O)CCCC(=O)O [LTB4] | – | – | – | – | potent granulocyte agonist
NC(COc1ccc(Cc2ccccc2)cc1)=NO [Example 12, N'-hydroxy-2-[4-(phenylmethyl)phenoxy]ethanimidamine] | > 100000 nM | 17900 nM | 63% | – | –
c1ccc(Cc2ccc(OCC3=NC4CCCCC4N3)cc2)cc1 (stereo not shown) [Example 13] | 200 nM | 190 nM | 71% | – | –
N=C(COc1ccc(Cc2ccccc2)cc1)NC1C2CC3CC(C2)CC1C3 (stereo not shown) [Example 11, 2-[4-(phenylmethyl)phenoxy]-N-(tricyclo[3.3.1.1 3,7]decan-2-yl)ethanimidamide, monohydrate] | 7800 nM | – | – | – | –
c1ccc(Cc2ccc(OCC3=NCCN3)cc2)cc1 [Example 7, 4,5-dihydro-2-[[4-(phenylmethyl)phenoxy]methyl]-1H-imidazole] | 70 nM | 220 nM | 33% | – | –

More lines, main results first:

IC50 [1] | IC50 [2] | SMILES | inhibition at 10 mg/kg [3] | LTA4 hydrolase inhibitory activity [4] | granulocyte agonist activity inducing chemotaxis, aggregation, degranulation, adherence and priming [5]
64 nM | 640 nM | c1ccc(Cc2ccc(OCCCC3=NCCN3)cc2)cc1 [Example 17] | 28% | – | –
4 nM | 53 nM | N=C(COc1ccc(Cc2ccccc2)cc1)N1CCCC1 [Example 3, α[[4-(phenylmethyl)phenoxy)methyl]-1-pyrrolidinemethanimine, monohydrochloride] | 46% | – | –
1.3 nM | 71 nM | CCOC(=O)C1CCN(C(=N)COc2ccc(Cc3ccccc3)cc2)CC1 [Example 5, ethyl 1-[1-imino-2-[4-(phenylmethyl)phenoxy]ethyl]-4-piperidinecarboxylate,monohydrochloride] | 62% | – | –
23 nM | 200 nM | CCOC(=O)CCNC(=N)COc1ccc(Cc2ccccc2)cc1 [Example 6, ethyl 3-[[1-imino-2-[4-(phenylmethyl)phenoxy]ethyl]amino]propanoate, monohydrochloride] | 54% | – | –
53 nM | 640 nM | N=C(CCCOc1ccc(Cc2ccccc2)cc1)N1CCCCC1 [Example 16, α-[3-[4-(phenylmethyl)phenoxy)propyl]-1-peperidinemethanimine, monohydrochloride] | 60% | – | –
17 nM | 77 nM | N=C(COc1ccc(Cc2ccccc2)cc1)N1CCC(C(N)=O)CC1 [Example 9, 1-[1-imino-2-[4-(phenylmethyl)phenoxy]ethyl]-4-piperidinecarboxamide] | 30% | – | –
4.3 nM | 85 nM | N=C(COc1ccc(Cc2ccccc2)cc1)N1CCCCC1 [Example 4, α[[4-(phenylmethyl)phenoxy)methyl]-1-peperidinemethanimine, monohydrochloride] | 30% | – | –
